Source: patent publication US20110269680A1 (PANACEA BIOTEC LIMITED, priority 2008, published 2011)
Where two headings read alike, the source gives them in different places. Each block holds one compound with its values, some of them ahead of it. Numbered stars: 1 amine (or outer) side, 2 acyl side, 3 side chain; on linkers, the order of the positions; unused ones are H or OH. Square brackets hold non-standard residues; d marks the D form. Peptide text beside a SMILES is read from it. X1 = CO[C@H]1O[C@H](C(=O)[*:2])[C@@H](O)[C@H](O)[C@H]1N[*:1]; 2Furoyl(5-aminomethyl) = O=C(c1ccc(CN[*:1])o1)[*:2]; Aib = CC(C)(N)C(=O)O

How the values were obtained:
NEP 24.11 = molecular target: T1, NEP 24.11 (Homo sapiens, UniProt P08473); assay: NEP 24.11 resistant (degradation) assay; format: in vitro ADME; settings: for half-life at 20 μM: buffer
T1 construct: purchased Calbiochem
Protocol: The aliquots were analyzed for the amount of undegraded peptide concentration at different time intervals using RP-HPLC by peak area integration. T1/2 of each peptide was determined from the graph plotted between peak area of undegraded peptide vs time.

DPP-IV = molecular target: T2, DPP-IV (Homo sapiens, UniProt P27487); assay: DPP-IV resistant assay; format: in vitro ADME
T2 construct: purchased Sigma-Aldrich
Protocol: 20 μM of peptides of the present invention (Sequence IDs—01, 02, 03, 04, 05, 06, 11, 12 and 13) were incubated with 60 mU/2 ml of DPP-IV (Sigma-Aldrich) enzyme at room temperature (22-24° C.) in 20 mM Tris HCl buffer, pH 8.0. The aliquots were analyzed for the amount of undegraded peptide concentration at different time intervals by RP-HPLC. The peak area integration was used to determine the amount of undegraded peptide (U.S. Pat. No. 7,067,488). T1/2 of each peptide was determined from the graph plotted between peak area of undegraded peptide vs. time. The peak area of DPP-IV untreated peptide in above mentioned buffer condition of same concentration was considered as time zero. […]

GLP-1R = molecular target: T3, GLP-1R (Homo sapiens, UniProt P43220); assay: In vitro receptor functional assay (cAMP) in CHO/GLP-1R cells; format: cell-based; settings: intracellular cAMP, 30 min with 1 mM IBMX
T3 construct: expressed in transfected cells; host or cells: CHO/GLP-1R cells
Text: cAMP is a ubiquitous cellular second messenger that is critical component of a signal transduction pathway linking membrane receptors and their ligands to the activation of internal cellular enzymatic activity and gene expression. cAMP is synthesized from ATP by membrane bound adenylate cyclase in a very regulated manner. In its simpler form, binding of a ligand, such as hormone or drug, to its specific G protein coupled receptor can either stimulate or inhibit adenylate cyclase depending on the GPCR being activated. […] Therefore the relative concentration of cAMP serves as a means to monitor the activity of GPCRs at the cell surface.
CHO/GLP-1R Cell Culture—CHO/GLP-1R Cells were maintained in Ham's F-12 medium containing 10% Fetal bovine serum and 1% penicillin-streptomycin antibiotic solution at 37° C. in a 5% CO2 incubator.
Cells were washed twice with PBS (pH-7.2) and incubated with 100 μl Ham's F-12 serum free medium supplemented with 0.1% BSA for 2 hr at 37° C. in 5% CO2 incubator. Cells were then incubated in 100 μl Ham's F-12 serum free medium supplemented with 0.1% BSA with 1 mM IBMX in the presence as well as absence of the peptides as per present invention in different concentration (10 nM, 1 nM, 100 pM & 10 pM). The reaction was stopped 30 min later by washing the intact cells three times with ice cold PBS (pH-7.2). The intracellular cAMP was extracted by incubating the cells in 100 μl 0.1N HCl at room temperature for 20 minutes. Mixture was dissociated by pipetting up and down until the suspension became homogenous, transferred to centrifuge tube and centrifuged at 800 rpm for 10 minutes.
Dissolved 5 pNPP tablets in 25 ml DEA buffer. Wells were emptied and washed five times with wash buffer and added 200 μl pNPP solution to each well, plate was covered and allowed to develop in dark for 90 minutes.

T3 sequence (P43220 24-463, species assumed): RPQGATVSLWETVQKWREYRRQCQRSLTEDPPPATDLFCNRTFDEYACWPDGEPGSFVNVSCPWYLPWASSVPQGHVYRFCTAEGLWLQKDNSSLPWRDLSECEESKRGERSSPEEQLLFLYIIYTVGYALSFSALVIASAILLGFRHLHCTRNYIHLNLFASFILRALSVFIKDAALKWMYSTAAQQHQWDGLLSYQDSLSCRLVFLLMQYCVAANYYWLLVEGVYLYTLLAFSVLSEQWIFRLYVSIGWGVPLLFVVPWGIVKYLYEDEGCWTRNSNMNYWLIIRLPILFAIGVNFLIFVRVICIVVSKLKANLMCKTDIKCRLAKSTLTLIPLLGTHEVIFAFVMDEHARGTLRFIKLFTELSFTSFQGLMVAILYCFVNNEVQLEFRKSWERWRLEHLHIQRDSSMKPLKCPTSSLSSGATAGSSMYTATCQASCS
T2 sequence (P27487 whole entry, species assumed): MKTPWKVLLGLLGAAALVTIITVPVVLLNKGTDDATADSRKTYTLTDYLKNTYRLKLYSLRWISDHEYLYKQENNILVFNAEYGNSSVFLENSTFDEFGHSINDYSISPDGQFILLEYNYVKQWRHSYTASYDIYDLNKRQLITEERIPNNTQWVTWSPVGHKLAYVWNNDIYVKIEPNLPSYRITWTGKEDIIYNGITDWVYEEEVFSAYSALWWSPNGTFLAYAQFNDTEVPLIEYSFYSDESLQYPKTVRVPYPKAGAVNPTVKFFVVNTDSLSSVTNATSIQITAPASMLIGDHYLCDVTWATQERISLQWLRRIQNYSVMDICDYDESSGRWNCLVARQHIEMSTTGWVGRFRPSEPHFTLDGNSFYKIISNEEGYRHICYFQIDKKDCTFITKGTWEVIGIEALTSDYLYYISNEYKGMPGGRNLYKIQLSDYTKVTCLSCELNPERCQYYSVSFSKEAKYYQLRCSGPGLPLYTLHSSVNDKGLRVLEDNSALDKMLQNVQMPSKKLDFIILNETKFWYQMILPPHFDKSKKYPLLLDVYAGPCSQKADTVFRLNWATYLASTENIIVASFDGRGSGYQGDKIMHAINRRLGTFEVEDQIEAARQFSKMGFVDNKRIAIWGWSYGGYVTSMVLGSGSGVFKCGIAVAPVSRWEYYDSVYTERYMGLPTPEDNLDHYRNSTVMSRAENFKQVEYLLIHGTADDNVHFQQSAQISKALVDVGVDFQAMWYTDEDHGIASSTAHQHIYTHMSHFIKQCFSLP
T1 sequence (P08473 whole entry): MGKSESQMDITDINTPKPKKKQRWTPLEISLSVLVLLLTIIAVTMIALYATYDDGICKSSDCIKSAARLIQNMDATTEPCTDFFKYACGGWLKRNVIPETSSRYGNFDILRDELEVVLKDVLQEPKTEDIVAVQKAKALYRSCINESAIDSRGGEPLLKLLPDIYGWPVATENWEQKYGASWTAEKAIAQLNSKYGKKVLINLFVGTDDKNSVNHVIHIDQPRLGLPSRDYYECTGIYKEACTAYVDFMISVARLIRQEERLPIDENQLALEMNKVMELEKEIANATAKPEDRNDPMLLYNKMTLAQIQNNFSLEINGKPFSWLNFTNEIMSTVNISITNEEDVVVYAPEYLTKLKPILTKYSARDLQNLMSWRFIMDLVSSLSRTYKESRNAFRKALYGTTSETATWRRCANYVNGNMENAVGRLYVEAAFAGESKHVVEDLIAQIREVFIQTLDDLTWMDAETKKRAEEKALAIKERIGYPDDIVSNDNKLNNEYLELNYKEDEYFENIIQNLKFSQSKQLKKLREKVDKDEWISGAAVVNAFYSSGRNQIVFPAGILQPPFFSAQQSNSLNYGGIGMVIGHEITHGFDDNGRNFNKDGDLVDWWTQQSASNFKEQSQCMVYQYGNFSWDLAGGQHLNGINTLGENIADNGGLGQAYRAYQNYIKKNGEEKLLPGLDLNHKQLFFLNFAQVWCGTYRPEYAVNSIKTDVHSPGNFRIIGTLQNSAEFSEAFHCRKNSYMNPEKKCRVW

Compound: CC[C@H](C)[C@H](NC(=O)[C@H](Cc1ccccc1)NC(=O)[C@H](CCC(=O)O)NC(=O)[C@H](CCCCN)NC(=O)[C@H](C)NC(=O)[C@H](C)NC(=O)[C@H](CCC(N)=O)NC(=O)CNC(=O)[C@H](CCC(=O)O)NC(=O)[C@H](CC(C)C)NC(=O)[C@H](Cc1ccc(O)cc1)NC(=O)[C@H](CO)NC(=O)[C@H](CO)NC(=O)[C@@H](NC(=O)[C@H](CC(=O)O)NC(=O)[C@H](CO)NC(=O)[C@@H](NC(=O)[C@H](Cc1ccccc1)NC(=O)[C@@H](NC(=O)CNC(=O)[C@H](CCC(=O)O)NC(=O)[C@H](C)NC(=O)[C@@H](N)Cc1c[nH]cn1)[C@@H](C)O)[C@@H](C)O)C(C)C)C(=O)N[C@@H](C)C(=O)N[C@@H](Cc1c[nH]c2ccccc12)C(=O)N[C@@H](CC(C)C)C(=O)N[C@H](C(=O)N[C@@H](CCCCN)C(=O)NCC(=O)N[C@@H](CCCNC(=N)N)C(N)=O)C(C)C [GLP-1(7-36) parent, GLP-1(7-36), reference compound]
metabolised at 54 h, 20 μM (NEP 24.11; isolated enzyme neprilysin, pH 7.4, NEP 24.11, after 54 hrs, read-out: % Degradation (after 54 hrs)): 98.3%

Percentage degradation in hrs (DPP-IV): 12.87%
half-life at 20 μM (DPP-IV; pH 8): > 24 h
half-life at 20 μM (NEP 24.11; pH 7.4): > 56 h
metabolised at 54 h, 20 μM (NEP 24.11; isolated enzyme neprilysin, pH 7.4): 26%
Compound: CC[C@H](C)[C@H](NC(=O)[C@H](Cc1ccccc1)NC(=O)[C@H](CCC(=O)O)NC(=O)[C@H](CCCCN)NC(=O)[C@H](C)NC(=O)[C@H](C)NC(=O)[C@H](CCC(N)=O)NC(=O)CNC(=O)[C@H](CCC(=O)O)NC(=O)[C@H](CC(C)C)NC(=O)[C@H](Cc1ccc(O)cc1)NC(=O)[C@H](CO)NC(=O)[C@H](CO)NC(=O)C(C)(C)NC(=O)[C@H](CC(=O)O)NC(=O)[C@H](CO)NC(=O)[C@@H](NC(=O)[C@H](Cc1ccccc1)NC(=O)[C@@H](NC(=O)CNC(=O)[C@H](CCC(=O)O)NC(=O)c1ccc(CNC(=O)[C@@H](N)Cc2c[nH]cn2)o1)[C@@H](C)O)[C@@H](C)O)C(=O)NC(C)(C)C(=O)N[C@@H](Cc1c[nH]c2ccccc12)C(=O)N[C@@H](CC(C)C)C(=O)N[C@H](C(=O)N[C@@H](CCCCN)C(=O)NCC(=O)N[C@@H](CCCNC(=N)N)C(N)=O)C(C)C [Seq ID No. 04] (H-H[2Furoyl(5-aminomethyl)]EGTFTSD[Aib]SSYLEGQAAKEFI[Aib]WLVKGR-NH2; N-terminus assumed)

EC50 (GLP-1R): 0.056 nM
Compound: CC[C@H](C)[C@H](NC(=O)[C@H](Cc1ccccc1)NC(=O)[C@H](CCC(=O)O)NC(=O)[C@H](CCCCN)NC(=O)[C@H](C)NC(=O)[C@H](C)NC(=O)[C@H](CCC(N)=O)NC(=O)CNC(=O)[C@H](CCC(=O)O)NC(=O)[C@H](CC(C)C)NC(=O)[C@H](Cc1ccc(O)cc1)NC(=O)[C@H](CO)NC(=O)[C@H](CO)NC(=O)[C@@H](NC(=O)[C@H](CC(=O)O)NC(=O)[C@H](CO)NC(=O)[C@@H](NC(=O)[C@H](Cc1ccccc1)NC(=O)[C@@H](NC(=O)CNC(=O)[C@H]1O[C@H](OC)[C@H](NC(=O)[C@@H](N)Cc2c[nH]cn2)[C@@H](O)[C@@H]1O)[C@@H](C)O)[C@@H](C)O)C(C)C)C(=O)N[C@@H](C)C(=O)N[C@@H](Cc1c[nH]c2ccccc12)C(=O)N[C@@H](CC(C)C)C(=O)N[C@H](C(=O)N[C@@H](CCCCN)C(=O)NCC(=O)N[C@@H](CCCNC(=N)N)C(N)=O)C(C)C [Seq ID No. 07]

EC50 (GLP-1R): 0.601 nM
Compound: CC[C@H](C)[C@H](NC(=O)[C@H](Cc1ccccc1)NC(=O)[C@H](CCC(=O)O)NC(=O)[C@H](CCCCN)NC(=O)[C@H](C)NC(=O)[C@H](C)NC(=O)[C@H](CCC(N)=O)NC(=O)CNC(=O)[C@H](CCC(=O)O)NC(=O)[C@H](CC(C)C)NC(=O)[C@H](Cc1ccc(O)cc1)NC(=O)[C@H](CO)NC(=O)[C@H](CO)NC(=O)[C@@H](NC(=O)[C@H](CC(=O)O)NC(=O)[C@H](CO)NC(=O)[C@@H](NC(=O)[C@H](Cc1ccccc1)NC(=O)[C@@H](NC(=O)CNC(=O)c1ccc(CNC(=O)[C@@H](N)Cc2c[nH]cn2)o1)[C@@H](C)O)[C@@H](C)O)C(C)C)C(=O)N[C@@H](C)C(=O)N[C@@H](Cc1c[nH]c2ccccc12)C(=O)N[C@@H](CC(C)C)C(=O)N[C@H](C(=O)N[C@@H](CCCCN)C(=O)NCC(=O)N[C@@H](CCCNC(=N)N)C(N)=O)C(C)C [Seq ID No. 08]

EC50 (GLP-1R): 1 nM
Compound: CC[C@H](C)[C@H](NC(=O)[C@H](Cc1ccccc1)NC(=O)[C@H](CCC(=O)O)NC(=O)[C@H](CCCCN)NC(=O)[C@H](C)NC(=O)[C@H](C)NC(=O)[C@H](CCC(N)=O)NC(=O)CNC(=O)[C@H](CCC(=O)O)NC(=O)[C@H](CC(C)C)NC(=O)[C@H](Cc1ccc(O)cc1)NC(=O)[C@H](CO)NC(=O)[C@H](CO)NC(=O)C(C)(C)NC(=O)[C@H](CC(=O)O)NC(=O)[C@H](CO)NC(=O)[C@@H](NC(=O)[C@H](Cc1ccccc1)NC(=O)[C@@H](NC(=O)CNC(=O)[C@H](CCC(=O)O)NC(=O)c1ccc(CNC(=O)[C@@H](N)Cc2c[nH]cn2)o1)[C@@H](C)O)[C@@H](C)O)C(=O)NC(C)(C)C(=O)N[C@@H](Cc1c[nH]c2ccccc12)C(=O)N[C@@H](CC(C)C)C(=O)N[C@H](C(=O)N[C@@H](CCCCN)C(=O)NCC(=O)N[C@@H](CCCNC(=N)N)C(=O)NCC(N)=O)C(C)C [Seq ID No. 09] (H-H[2Furoyl(5-aminomethyl)]EGTFTSD[Aib]SSYLEGQAAKEFI[Aib]WLVKGRG-NH2)

Compound: CC[C@H](C)[C@H](NC(=O)[C@H](Cc1ccccc1)NC(=O)[C@H](CCC(=O)O)NC(=O)[C@H](CCCCN)NC(=O)[C@H](C)NC(=O)[C@H](C)NC(=O)[C@H](CCC(N)=O)NC(=O)CNC(=O)[C@H](CCC(=O)O)NC(=O)[C@H](CC(C)C)NC(=O)[C@H](Cc1ccc(O)cc1)NC(=O)[C@H](CO)NC(=O)[C@H](CO)NC(=O)[C@@H](NC(=O)[C@H](CC(=O)O)NC(=O)[C@H](CO)NC(=O)[C@@H](NC(=O)[C@H](Cc1ccccc1)NC(=O)[C@@H](NC(=O)CNC(=O)[C@H](CCC(=O)O)NC(=O)c1ccc(CNC(=O)[C@@H](N)Cc2c[nH]cn2)o1)[C@@H](C)O)[C@@H](C)O)C(C)C)C(=O)N[C@@H](C)C(=O)N[C@@H](Cc1c[nH]c2ccccc12)C(=O)N[C@@H](CC(C)C)C(=O)N[C@H](C(=O)N[C@@H](CCCCN)C(=O)NC(C)(C)C(=O)N[C@@H](CCCNC(=N)N)C(N)=O)C(C)C [Seq ID No. 11]
half-life at 20 μM (DPP-IV; 20 μM peptide, 60 mU/2 ml DPP-IV, room temperature (22-24° C.), 20 mM Tris HCl pH 8.0, RP-HPLC, read-out: T1/2 in Hrs): > 24 h
Percentage degradation in hrs (DPP-IV; DPP-IV, in 24 hrs): 20%
half life against DPP-IV compared with parent GLP-1 molecules (DPP-IV; versus GLP-1(7-37) parent and GLP-1(7-36) parent): better half lives than the parent GLP-1 molecules

Percentage degradation in hrs (DPP-IV): 24.93%
half-life at 20 μM (DPP-IV; pH 8): > 24 h
half-life at 20 μM (NEP 24.11; 20 μM peptide, 1 mg/ml NEP 24.11, 37° C., 50 mM Hepes, 50 mM NaCl, pH 7.4, RP-HPLC, read-out: T1/2 (converted)): 27.5 h
metabolised at 54 h, 20 μM (NEP 24.11; isolated NEP 24.11 enzyme (Calbiochem), pH 7.4, NEP 24.11, after 54 hrs, read-out: % Degradation (after 54 hrs)): 93.5%
Compound: CC[C@H](C)[C@H](NC(=O)[C@H](Cc1ccccc1)NC(=O)[C@H](CC(C)C)NC(=O)[C@H](CCCCN)NC(=O)[C@H](C)NC(=O)[C@H](C)NC(=O)[C@H](CCC(N)=O)NC(=O)CNC(=O)[C@H](CCC(=O)O)NC(=O)[C@H](CCC(N)=O)NC(=O)[C@H](Cc1ccc(O)cc1)NC(=O)[C@H](CO)NC(=O)[C@H](CC(C)C)NC(=O)[C@@H](NC(=O)[C@H](CC(=O)O)NC(=O)[C@H](CO)NC(=O)[C@@H](NC(=O)[C@H](Cc1ccccc1)NC(=O)[C@@H](NC(=O)CNC(=O)[C@H]1O[C@H](OC)[C@H](NC(=O)[C@@H](N)Cc2c[nH]cn2)[C@@H](O)[C@@H]1O)[C@@H](C)O)[C@@H](C)O)C(C)C)C(=O)N[C@@H](CCC(=O)O)C(=O)N[C@@H](Cc1c[nH]c2ccccc12)C(=O)N[C@@H](CC(C)C)C(=O)N[C@H](C(=O)N[C@@H](CCCCN)C(=O)NCC(=O)N[C@@H](CCCNC(=N)N)C(N)=O)C(C)C [Seq ID No. 12] (H-H[X1]GTFTSDVLSYQEGQAAKLFIEWLVKGR-NH2; N-terminus assumed)
